Laboratory results: ChEMBL document CHEMBL1201862, “PubChem BioAssay data set” (2004)
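Dose response: 5 concentrations. Exposure: 48 h. Format: 96-well plates. Endpoint: linear interpolation; highest concentration if not reached. GI50 = concentration required for 50% inhibition of growth.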 Activity calls are given as the source filed them. Rule as the data show it: active = GI50 up to about 1.1 µM and inactive = higher.

Assays:
Assay in all cases: DTP human tumour cell line panel, 48 h
SK-MEL-2 = tested on: SK-MEL-2
CAKI-1 = tested on: CAKI-1
SN12C = tested on: SN12C
SK-OV-3 = tested on: SK-OV-3
HCT-15 = tested on: HCT-15
LOX IMVI = tested on: LOX IMVI
SF-295 = tested on: SF-295
OVCAR-3 = tested on: OVCAR-3
KM12 = tested on: KM12
SF-539 = tested on: SF-539
HOP-62 = tested on: HOP-62
ACHN = tested on: ACHN
RPMI-8226 = tested on: RPMI-8226
IGROV-1 = tested on: IGROV-1
OVCAR-5 = tested on: OVCAR-5
HT-29 = tested on: HT-29
SNB-19 = tested on: SNB-19
BT-549 = tested on: BT-549
T47D = tested on: T47D

SMILES	GI50 (SK-MEL-2)	GI50 (CAKI-1)	GI50 (SN12C)	GI50 (SK-OV-3)	GI50 (HCT-15)	GI50 (LOX IMVI)	GI50 (SF-295)	GI50 (OVCAR-3)	GI50 (KM12)	GI50 (SF-539)	GI50 (HOP-62)	GI50 (ACHN)	GI50 (RPMI-8226)	GI50 (IGROV-1)	GI50 (OVCAR-5)	GI50 (HT-29)	GI50 (SNB-19)	GI50 (BT-549)	GI50 (T47D)
Cc1ccc(NC(=O)CSc2nnc(Cc3ccccc3)o2)cc1	> 100 µM (inactive)	> 100 µM (inactive)	> 100 µM (inactive)	> 100 µM (inactive)	> 100 µM	> 100 µM (inactive)	> 100 µM (inactive)	> 100 µM (inactive)	> 100 µM (inactive)	> 100 µM (inactive)	> 100 µM (inactive)	> 100 µM (inactive)	> 100 µM (inactive)	> 100 µM (inactive)	> 100 µM (inactive)	> 100 µM (inactive)	> 100 µM (inactive)		
CCOC(=O)c1c(NNc2ccccc2)nc2ccccc2c1-c1ccccc1	17.2 µM (inactive)	37.1 µM (inactive)	30.6 µM (inactive)	65.5 µM (inactive)	33 µM	20.2 µM (inactive)	42.6 µM (inactive)	21.1 µM (inactive)	31.4 µM (inactive)	25.6 µM (inactive)	23.8 µM (inactive)	39.5 µM (inactive)	11.9 µM (inactive)	42.4 µM (inactive)	56.1 µM (inactive)	32.3 µM (inactive)	41.8 µM (inactive)		
COC(=O)/C=C(\C)CC(O)/C=C(\C)CCC=C(C)C (stereo not given)	19.1 µM (inactive)	92.7 µM (inactive)	> 100 µM (inactive)	> 100 µM (inactive)	58.6 µM	29.4 µM (inactive)	38.1 µM (inactive)	22.7 µM (inactive)	40.4 µM (inactive)	> 100 µM (inactive)	> 100 µM (inactive)	64.7 µM (inactive)		> 100 µM (inactive)	> 100 µM (inactive)	24.1 µM (inactive)	> 100 µM (inactive)	31.2 µM (inactive)	
Cc1cccc(NC2=NCCO2)c1Cl			> 100 µM (inactive)	> 100 µM (inactive)	> 100 µM		> 100 µM (inactive)		> 100 µM (inactive)	> 100 µM (inactive)	> 100 µM (inactive)	> 100 µM (inactive)	> 100 µM (inactive)	> 100 µM (inactive)	> 100 µM (inactive)	> 100 µM (inactive)	> 100 µM (inactive)		> 100 µM (inactive)
CCNc1nnc(CSc2nc(-c3ccccc3)c(-c3ccccc3)[nH]2)s1	20.8 µM (inactive)		20.8 µM (inactive)	20.1 µM (inactive)	18.3 µM	16.5 µM (inactive)	17.7 µM (inactive)	20.6 µM (inactive)	9.38 µM (inactive)	18.7 µM (inactive)	19.9 µM (inactive)	23.3 µM (inactive)	15.5 µM (inactive)		21.4 µM (inactive)	19.6 µM (inactive)	16.7 µM (inactive)		
O=C1C=CC(S(=O)(=O)C2=C/C(=C/Nc3ccc(Cl)cc3)C(=O)C=C2)=C/C1=C/Nc1ccc(Cl)cc1	> 100 µM (inactive)	> 100 µM (inactive)	> 100 µM (inactive)	> 100 µM (inactive)		> 100 µM (inactive)	> 100 µM (inactive)	> 100 µM (inactive)	> 100 µM (inactive)	> 100 µM (inactive)	> 100 µM (inactive)	> 100 µM (inactive)	> 100 µM (inactive)	> 100 µM (inactive)	> 100 µM (inactive)	> 100 µM (inactive)	> 100 µM (inactive)		
NC1CCCCC1.O=C(CP(=O)(O)O)NC(CC(=O)OCc1ccccc1)C(=O)OCc1ccccc1 (stereo not given)	4.85 µM (inactive)	> 100 µM (inactive)	> 100 µM (inactive)	> 100 µM (inactive)	> 100 µM		> 100 µM (inactive)	> 100 µM (inactive)		> 100 µM (inactive)	> 100 µM (inactive)	> 100 µM (inactive)	> 100 µM (inactive)	> 100 µM (inactive)	> 100 µM (inactive)	> 100 µM (inactive)	> 100 µM (inactive)		> 100 µM (inactive)
NC(=O)c1ncn(C2C=CC(CP(=O)(O)O)C2)c1N (stereo not given)	> 100 µM (inactive)	> 100 µM (inactive)	> 100 µM (inactive)	> 100 µM (inactive)	> 100 µM	> 100 µM (inactive)	> 100 µM (inactive)	> 100 µM (inactive)	> 100 µM (inactive)	> 100 µM (inactive)	> 100 µM (inactive)	> 100 µM (inactive)	> 100 µM (inactive)	> 100 µM (inactive)	> 100 µM (inactive)	> 100 µM (inactive)	> 100 µM (inactive)		> 100 µM (inactive)
CCCC1C(C#N)(C#N)C(C#N)=C(N)C1(C)C(C)=O (stereo not given)	> 100 µM (inactive)	10.1 µM (inactive)	> 100 µM (inactive)	> 100 µM (inactive)	29.2 µM	> 100 µM (inactive)	> 100 µM (inactive)		> 100 µM (inactive)	> 100 µM (inactive)		> 100 µM (inactive)	> 100 µM (inactive)	> 100 µM (inactive)	> 100 µM (inactive)	> 100 µM (inactive)	> 100 µM (inactive)		59 µM (inactive)
Oc1ccc2ccccc2c1CCc1c(O)ccc2ccccc12		7.45 µM (inactive)	11.2 µM (inactive)	15.8 µM (inactive)	14.4 µM	14.3 µM (inactive)	11.7 µM (inactive)	4.42 µM (inactive)	11.8 µM (inactive)	16.2 µM (inactive)	13.5 µM (inactive)	16.4 µM (inactive)	7.01 µM (inactive)		14.1 µM (inactive)	4.41 µM (inactive)	16.9 µM (inactive)		2.44 µM (inactive)
COC(=O)C1CCCN1C(=O)C(Cc1cn(S(=O)(=O)c2ccc(C)cc2)cn1)NC(=O)OC(C)(C)C (stereo not given)	> 100 µM (inactive)		> 100 µM (inactive)		> 100 µM				> 100 µM (inactive)		> 100 µM (inactive)	> 100 µM (inactive)	> 100 µM (inactive)	> 100 µM (inactive)	> 100 µM (inactive)	> 100 µM (inactive)	> 100 µM (inactive)	> 100 µM (inactive)	
CC1(C)[C@@H]2CC[C@@]1(C)[C@@H]1O[C@@H](O[C@@H](CN)c3cc(Cl)c(OCc4ccccc4)c(OCc4ccccc4)c3)C[C@H]21	0.173 µM (active)	0.165 µM (active)	0.183 µM (active)	0.175 µM (active)		0.166 µM (active)	0.183 µM (active)	0.168 µM (active)	0.169 µM (active)	0.196 µM (active)	0.179 µM (active)	0.169 µM (active)	0.0463 µM (active)	0.179 µM (active)	0.166 µM (active)	0.151 µM (active)	0.183 µM (active)		0.178 µM (active)
C/C1=C\[C@H](C)C[C@H](C)OC(=O)C[C@H](c2ccc(O)cc2)NC(=O)[C@H](Cc2ccc(O)c(Br)c2)N(C)C(=O)[C@H](C)NC(=O)[C@@H](C)C1	> 25 µM (inactive)		> 25 µM (inactive)	> 25 µM (inactive)	> 25 µM	> 25 µM (inactive)	> 25 µM (inactive)	> 25 µM (inactive)	> 25 µM (inactive)		> 25 µM (inactive)	> 25 µM (inactive)	> 25 µM (inactive)	> 25 µM (inactive)	> 25 µM (inactive)	> 25 µM (inactive)	> 25 µM (inactive)		
CNC(=O)C1CCC(=O)N1CN(C(C)=O)c1ccccc1 (stereo not given)	> 100 µM (inactive)	> 100 µM (inactive)	> 100 µM (inactive)	> 100 µM (inactive)	> 100 µM	> 100 µM (inactive)	> 100 µM (inactive)	> 100 µM (inactive)	> 100 µM (inactive)	> 100 µM (inactive)	> 100 µM (inactive)	> 100 µM (inactive)	> 100 µM (inactive)	> 100 µM (inactive)	> 100 µM (inactive)	> 100 µM (inactive)	> 100 µM (inactive)		> 100 µM (inactive)
Cn1c(N)[n+](C(=O)OCc2ccccc2)c(=O)c2c1ncn2C(=O)OCc1ccccc1	> 100 µM (inactive)	53 µM (inactive)	> 100 µM (inactive)	28.9 µM (inactive)	> 100 µM	> 100 µM (inactive)	49.5 µM (inactive)	> 100 µM (inactive)	> 100 µM (inactive)		27 µM (inactive)	24.4 µM (inactive)	> 100 µM (inactive)	> 100 µM (inactive)	> 100 µM (inactive)	> 100 µM (inactive)	30.8 µM (inactive)		
N#C/N=C(/N)NCc1ccccc1	> 100 µM (inactive)		> 100 µM (inactive)	> 100 µM (inactive)	> 100 µM	> 100 µM (inactive)	> 100 µM (inactive)	> 100 µM (inactive)	> 100 µM (inactive)	> 100 µM (inactive)	> 100 µM (inactive)	> 100 µM (inactive)	> 100 µM (inactive)	> 100 µM (inactive)	> 100 µM (inactive)	> 100 µM (inactive)			
CCCCn1c(O)nc2c(N)ncnc21	> 100 µM (inactive)		> 100 µM (inactive)	> 100 µM (inactive)	> 100 µM	> 100 µM (inactive)	> 100 µM (inactive)	> 100 µM (inactive)		> 100 µM (inactive)	> 100 µM (inactive)	> 100 µM (inactive)		> 100 µM (inactive)	> 100 µM (inactive)	> 100 µM (inactive)	> 100 µM (inactive)	> 100 µM (inactive)	
